Measured values published in patent US20200069648A1, “HALOALLYLAMINE PYRAZOLE DERIVATIVE INHIBITORS OF LYSYL OXIDASES AND USES THEREOF” (Pharmaxis Ltd., priority 2017, published 2020).
Where a name gives a salt, the structure may show the parent alone.

What was measured:
[1] = target: T1, Human LOXL2 (Homo sapiens, UniProt Q9Y4K0); assay: LOXL2 amine oxidase inhibition, peroxidase-coupled Amplex Red assay; type: biochemical; settings: 30 min preincubation at 37° C., putrescine substrate
T1 sequence (Q9Y4K0 26-774): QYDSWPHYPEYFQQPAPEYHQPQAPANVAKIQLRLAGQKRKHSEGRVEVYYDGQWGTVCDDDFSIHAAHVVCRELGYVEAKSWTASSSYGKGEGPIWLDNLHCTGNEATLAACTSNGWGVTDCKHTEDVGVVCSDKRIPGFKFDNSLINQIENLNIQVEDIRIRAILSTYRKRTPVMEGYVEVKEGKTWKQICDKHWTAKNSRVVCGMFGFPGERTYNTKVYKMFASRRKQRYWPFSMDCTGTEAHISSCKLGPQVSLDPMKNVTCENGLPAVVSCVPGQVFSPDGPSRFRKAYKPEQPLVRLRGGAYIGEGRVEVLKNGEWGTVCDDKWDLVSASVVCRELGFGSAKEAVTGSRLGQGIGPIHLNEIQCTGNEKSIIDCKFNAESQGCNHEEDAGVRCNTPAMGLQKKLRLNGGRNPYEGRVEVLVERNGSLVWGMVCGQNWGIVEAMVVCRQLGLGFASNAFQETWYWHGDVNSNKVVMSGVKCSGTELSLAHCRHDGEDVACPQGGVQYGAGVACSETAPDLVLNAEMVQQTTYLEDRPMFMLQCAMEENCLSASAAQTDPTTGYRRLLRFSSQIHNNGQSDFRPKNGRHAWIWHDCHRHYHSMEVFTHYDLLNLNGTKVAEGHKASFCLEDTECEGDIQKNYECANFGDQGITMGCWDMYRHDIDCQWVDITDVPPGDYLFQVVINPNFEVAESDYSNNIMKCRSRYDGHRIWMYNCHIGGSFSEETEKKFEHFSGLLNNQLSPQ
Summary of the method: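 Enzyme preincubated 30 min at 37 °C with compound (11-point curve) in 1.2 M urea, 50 mM borate pH 8.2 plus 1 μM mofegiline and 0.5 mM pargyline; putrescine at twice KM (10 mM for LOXL2), Amplex Red and HRP added. Fluorescence (565/590 nm) read every 2.5 min for 30 min; IC50 from kinetic slopes.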

[2] = target: T2, Bovine LOX (Bos taurus, UniProt P33072); assay: LOX amine oxidase inhibition, peroxidase-coupled Amplex Red assay; type: biochemical; settings: 30 min preincubation at 37° C., putrescine substrate
T2 sequence (P33072 170-418): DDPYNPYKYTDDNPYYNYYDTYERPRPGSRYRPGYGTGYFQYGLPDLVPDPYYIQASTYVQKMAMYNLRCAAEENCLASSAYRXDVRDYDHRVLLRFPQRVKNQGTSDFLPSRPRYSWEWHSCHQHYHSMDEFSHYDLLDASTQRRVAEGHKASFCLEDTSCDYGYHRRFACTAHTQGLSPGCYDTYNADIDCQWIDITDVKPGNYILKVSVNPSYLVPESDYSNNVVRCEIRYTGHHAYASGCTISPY
Summary of the method: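 Bovine LOX in 1.2 M urea, 50 mM sodium borate pH 8.2 […]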

With `Cc1nn(C/C(F)=C/CN)c(C)c1Cc1ccc(S(=O)(=O)N(C)C)c(Cl)c1` [Compound 15, (Z)-4-((1-(4-amino-2-fluorobut-2-en-1-yl)-3,5-dimethyl-1H-pyrazol-4-yl)methyl)-2-chloro-N,N-dimethylbenzenesulfonamide hydrochloride] the IC50 [1] was under 1 µM and the IC50 [2] was under 10 µM.
Work on `Cc1nn(C/C(F)=C/CN)c(C)c1Cc1ccc(S(C)(=O)=O)c(Cl)c1` [Compound 16, (Z)-4-(4-(3-chloro-4-(methylsulfonyl)benzyl)-3,5-dimethyl-1H-pyrazol-1-yl)-3-fluorobut-2-en-1-amine hydrochloride] yielded an IC50 [1] of under 1 µM and an IC50 [2] of under 10 µM.
`Cc1nn(C/C(F)=C/CN)c(C)c1Cc1ccc(S(=O)(=O)N(C)C)c(OC(F)(F)F)c1` [Compound 17, (Z)-4-((1-(4-amino-2-fluorobut-2-en-1-yl)-3,5-dimethyl-1H-pyrazol-4-yl)methyl)-N,N-dimethyl-2-(trifluoromethoxy)benzenesulfonamide hydrochloride] was tested, and the IC50 [1] was under 1 µM and the IC50 [2] was over 10 µM.
`Cc1nn(C/C(F)=C/CN)c(C)c1Cc1ccc(S(=O)(=O)N(C)C)c(C(F)(F)F)c1` [Compound 18, (Z)-4-((1-(4-amino-2-fluorobut-2-en-1-yl)-3,5-dimethyl-1H-pyrazol-4-yl)methyl)-N,N-dimethyl-2-(trifluoromethyl)benzenesulfonamide hydrochloride] showed an IC50 [1] of under 1 µM and an IC50 [2] of under 10 µM.
`Cc1nn(C/C(F)=C/CN)c(C)c1Cc1cc(F)c(S(=O)(=O)N(C)C)cc1F` [Compound 19, (Z)-4-((1-(4-amino-2-fluorobut-2-en-1-yl)-3,5-dimethyl-1H-pyrazol-4-yl)methyl)-2,5-difluoro-N,N-dimethylbenzenesulfonamide hydrochloride] showed an IC50 [1] of under 1 µM and an IC50 [2] of under 10 µM.
For `CNS(=O)(=O)c1ccc(Cn2nc(C)c(C/C(F)=C/CN)c2C)c(Cl)c1` [Compound 20, (Z)-4-((4-(4-amino-2-fluorobut-2-en-1-yl)-3,5-dimethyl-1H-pyrazol-1-yl)methyl)-3-chloro-N-methylbenzenesulfonamide hydrochloride], the IC50 [1] was under 1 µM and the IC50 [2] was under 10 µM.
Compound `Cc1nn(Cc2ccc(S(C)(=O)=O)cc2Cl)c(C)c1C/C(F)=C/CN` [Compound 21, (Z)-4-(1-(2-chloro-4-(methylsulfonyl)benzyl)-3,5-dimethyl-1H-pyrazol-4-yl)-3-fluorobut-2-en-1-amine hydrochloride] has an IC50 [1] of under 1 µM and an IC50 [2] of under 10 µM.
For `CNS(=O)(=O)c1ccc(Cn2nc(C)c(C/C(F)=C/CN)c2C)cc1Cl` [Compound 22, (Z)-4-((4-(4-amino-2-fluorobut-2-en-1-yl)-3,5-dimethyl-1H-pyrazol-1-yl)methyl)-2-chloro-N-methylbenzenesulfonamide hydrochloride], the IC50 [1] was under 1 µM and the IC50 [2] was under 10 µM.
`CNS(=O)(=O)c1ccc(Cn2nc(C)c(C/C(F)=C/CN)c2C)c(C(F)(F)F)c1` [Compound 23, (Z)-4-((4-(4-amino-2-fluorobut-2-en-1-yl)-3,5-dimethyl-1H-pyrazol-1-yl)methyl)-N-methyl-3-(trifluoromethyl)benzenesulfonamide hydrochloride] was tested, and the IC50 [1] was under 1 µM and the IC50 [2] was under 10 µM.
Compound `Cc1nn(Cc2ccc(S(C)(=O)=O)c(Cl)c2)c(C)c1C/C(F)=C/CN` [Compound 24, (Z)-4-(1-(3-chloro-4-(methylsulfonyl)benzyl)-3,5-dimethyl-1H-pyrazol-4-yl)-3-fluorobut-2-en-1-amine hydrochloride] has an IC50 [1] of under 1 µM and an IC50 [2] of under 10 µM.
Compound `Cc1nn(Cc2cc(F)c(S(=O)(=O)N(C)C)cc2F)c(C)c1C/C(F)=C/CN` [Compound 25, (Z)-4-((4-(4-amino-2-fluorobut-2-en-1-yl)-3,5-dimethyl-1H-pyrazol-1-yl)methyl)-2,5-difluoro-N,N-dimethylbenzenesulfonamide hydrochloride] has an IC50 [1] of under 1 µM and an IC50 [2] of under 10 µM.
